Results as given in patent EP0659743A1, “Piperidine derivatives as inhibitors of platelet aggregation and their preparation” (HOECHST AKTIENGESELLSCHAFT, priority 1993, dated 1995).

Key:
Human Platelet = experiment: In-vitro Human Platelet Aggregation in PRP (ADP induced); format: cell-based; conditions: PRP (platelet rich plasma), 37°C, read-out: IC₅₀(µM) Inhibitor of ADP induced Platelet aggregation
Experimental: The compounds of the above invention are tested for platelet binding inhibitory activity in the following assays: • 1. In-vitro Human Platelet Aggregation in PRP: Blood is drawn from healthy human volunteers who had no medication for at least two weeks. 8.4 ml of venous blood are collected into 1.4 ml of ACD solution (citric acid 0.8 %, sodium citrate 2.2 %, hirudin 0.6 u/ml) and centrifuged for 10 min. at 120 g. The platelet rich plasma (PRP) is carefully removed and remaining blood is further centrifuged at 1200 g for 15 min. to separate platelet poor plasma (PPP). For aggregation studies the aggregometer is adjusted by using PPP and PRP. ADP is then added tp PRP which is kept at 37°C and stirred constantly at 1000 rpm. The aggregation of platelets causes an increase in transparency of PRP which is recorded. • 2. Preparation of Gel Filtered Platelets (GFP): Platelet rich plasma (PRP) is collected as mentioned in the above procedure. Its pH is adjusted to 6.5 with ACD solution and then centrifuged at 285 g for 20 min.. The resulting pellet is resuspended in Tyrode's buffer (NaCl, 7.01 g/l; KCl, 0194 g/l; NaHCO₃, 1.01 g/l; Glucose, 1.09 g/l; NaH₂PO₄, 0.061 g/l; Hepes, 2.380 g/l; albumin, 3.5 g/l) and the platelet suspension is applied on to a ^RSepharose CL 20 column. Equilibrium and elution is done with Tyrode's buffer. Platelets are recovered in the void volume. Final platelet concentration is adjusted to 4 X 108 platelets/ml. For the aggregation studies, GFP in Tyrodes buffer is mixed with calcium chloride (final concentration […]) and an agonist (ADP or Thrombin) with or without test compound (1 to 300 µM) and incubated at 37°C for 3 min.. After the addition of fibrinogen (final conc. 1 mg/ml) the aggregation is recorded.
Aggregation maximum for PRP or GFP without any inhibitor is taken as 100 % aggregation and is compared with aggregation maximum of RPR or GFP incubated with the test compound.

[1] = tested on: Gel Filtered Platelets (GFP); experiment: ADP induced aggregation of Gel Filtered Platelets (GFP); format: cell-based; conditions: Homo sapiens, Platelet, 0.05 h, GFP (gel filtered platelets) in Tyrode's buffer, fibrinogen 1 mg/ml, 37°C for 3 min, read-out: IC₅₀(µM) Inhibitor of ADP induced Platelet aggregation
Experimental: The compounds of the above invention are tested for platelet binding inhibitory activity in the following assays: • 1. In-vitro Human Platelet Aggregation in PRP: Blood is drawn from healthy human volunteers who had no medication for at least two weeks. 8.4 ml of venous blood are collected into 1.4 ml of ACD solution (citric acid 0.8 %, sodium citrate 2.2 %, hirudin 0.6 u/ml) and centrifuged for 10 min. at 120 g. The platelet rich plasma (PRP) is carefully removed and remaining blood is further centrifuged at 1200 g for 15 min. to separate platelet poor plasma (PPP). For aggregation studies the aggregometer is adjusted by using PPP and PRP. ADP is then added tp PRP which is kept at 37°C and stirred constantly at 1000 rpm. The aggregation of platelets causes an increase in transparency of PRP which is recorded. • 2. Preparation of Gel Filtered Platelets (GFP): Platelet rich plasma (PRP) is collected as mentioned in the above procedure. Its pH is adjusted to 6.5 with ACD solution and then centrifuged at 285 g for 20 min.. The resulting pellet is resuspended in Tyrode's buffer (NaCl, 7.01 g/l; KCl, 0194 g/l; NaHCO₃, 1.01 g/l; Glucose, 1.09 g/l; NaH₂PO₄, 0.061 g/l; Hepes, 2.380 g/l; albumin, 3.5 g/l) and the platelet suspension is applied on to a ^RSepharose CL 20 column. […] After the addition of fibrinogen (final conc. 1 mg/ml) the aggregation is recorded. […]

COC(=O)COc1ccc(C=CC(=O)c2c(OC)cc(OC)c(C3CCN(C)CC3)c2O)cc1 [Compound 6]
IC50 (Human Platelet): 17 µM

COC(=O)COc1ccc(C=CC(=O)c2c(OC)cc(OC)c(C3CCN(C)CC3O)c2O)cc1 (centres unmarked) [Compound 2]
IC50 [1]: 0.53 µM
IC50 (Human Platelet): 5.3 µM

COC(=O)COc1ccc(CCC(=O)c2c(OC)cc(OC)c(C3CCN(C)CC3)c2O)cc1 [Compound 7]
IC50 [1]: 2 µM
IC50 (Human Platelet): 8 µM
